Read-outs that look alike come from different tables or passages of the source.
Tests used:
[1] = target: V2 (Homo sapiens, UniProt P30518); test: V2 receptor inhibition data (Ki); format: binding; settings: receptor selectivity table
[2] = target: T1, V1b receptor (Homo sapiens, UniProt P47901); test: Human or rat vasopressin V1b cell-based receptor binding assay; settings: receptor selectivity table; read-out: inhibition data Ki, V1b
T1 construct: expressed in transfected cells; host or cells: CHO-K1 (ATCC), vector pCI-neo, G418-selected clones
T1 sequence (P47901 1-424): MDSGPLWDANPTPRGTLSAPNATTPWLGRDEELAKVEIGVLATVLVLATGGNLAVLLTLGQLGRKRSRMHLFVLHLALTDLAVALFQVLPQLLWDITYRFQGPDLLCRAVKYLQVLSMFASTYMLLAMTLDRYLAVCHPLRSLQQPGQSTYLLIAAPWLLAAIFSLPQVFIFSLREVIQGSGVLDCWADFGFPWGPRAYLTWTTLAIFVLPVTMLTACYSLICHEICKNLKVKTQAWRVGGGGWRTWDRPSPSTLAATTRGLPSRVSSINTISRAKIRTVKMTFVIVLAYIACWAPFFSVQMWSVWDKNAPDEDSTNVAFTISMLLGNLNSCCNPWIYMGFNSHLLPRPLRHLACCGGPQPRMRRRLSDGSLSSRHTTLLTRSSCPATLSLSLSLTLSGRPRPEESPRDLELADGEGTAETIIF
Source text: Human vasopression V1b receptor-expressing cells. Human vasopressin receptor 1b (hV1b) cDNA (see, Lolait et al., “Extrapituitary expression of the rat V1b vasopressin receptor gene” Proc. Natl. Acad. Sci. USA. 92:6783-7 (1995); de Keyzer et al., “Cloning and characterization of the human V3(V1b) pituitary vasopressin receptor” FEBS Lett. 356:215-20 (1994); Sugimoto et al., “Molecular cloning and functional expression of a cDNA encoding the human V1b vasopressin receptor” J. Biol. Chem. 269:27088-92 (1994)) was inserted into a mammalian cell expression vector PCI-neo (Promega) at EcoR1 site. The recombinant plasmid carrying hV1b cDNA was identified from transformed E. Coli clones and used for the transfection of Chinese hamster ovary cell (CHO-Kl, ATCC). Two micrograms of hV1b receptor DNA was introduced into 10^5 CHO cells cultured in 6-well plate, using Fugene-6 mediated transfection technique (Boehringer Mannheim). Twenty-four hrs post transfection, Cells were then cultured under selection of G-418 (0.25 mg/ml) supplemented to the culture medium. Three days later, limited dilution was carried out to obtain single cell clones in 96-well plates. […]
Human or rat vasopression V1b cell-based receptor binding assay. […] Samples were counted in a liquid scintillation counter (Beckman LS3801). IC50 and Ki values were calculated using Prism Curve fitting software. […]

[3] = target: T2, human V1a receptor (Homo sapiens, UniProt P37288); test: Human vasopressin V1a receptor binding assay (3H-AVP competition, hV1a CHO cells)
T2 construct: host or cells: CHO cells (hV1a cell line)
Summary of the method: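 Whole CHO cells expressing hV1a were incubated with 1 nM 3H-AVP (as printed "InM") and 10-fold dilutions of compound in HEPES/BSA/DMEM buffer, pH 7.0, for 45 min at 37 °C. Non-specific binding was defined with 100 nM cold AVP. Bound radioactivity was SDS-solubilised and counted by scintillation; IC50 from curve fitting.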

[4] = tested on: awake rats; test: Resident-intruder model of stress and aggression in rats, awake fMRI neuroimaging; format: in vivo, rat; settings: pretreatment 5 mg/kg 90 minutes before test session, mate + intruder; listed as AVN246
Source text: Resident-intruder model of stress and aggression in rats. Neuroimaging is used to assess the blockade of stress/arousal with test compound compared to control. The effect of AVN251-HCl on functional circuitry was examined using the imaging method for awake rats. Additional details of the assay are described in Ferris et al. Imaging the neural circuitry and chemical control of aggressive motivation.
Male rats in the company of a female cage mate piloerect in the presence of a male intruder. Piloerection is a sign of stress and aggressive intent and is associated with activation of stress/arousal circuits in the brain. Stress circuit activation in response to an intruder male is assessed by obtaining brain scans viewed from a caudal/dorsal perspective as translucent shells. The localization of activated voxels is mapped as 3D volumes of activation, which are composed of 10 subjects each. Once fully registered and segmented, the statistical responses for each subject are averaged on a voxel-by-voxel basis. Those averaged voxels exceeding a 2.0% threshold are shown in their appropriate spatial location. Functional images are acquired on awake rats at 4.7 T.
Resident male rats from six male/female pairs are imaged while fully awake, and presented with their mate, or their mate+an intruder, a highly stressful stimulus. […] The total volume of brain activation for resident males confronted with their mate alone, mate plus intruder, and mate plus intruder in the presence of AVN251-HCl are viewed as 3D models.
Awake rats are imaged when presented with their mate, or their mate+an intruder. […] In each scan, the dark shaded areas represent activation of vasopressin receptor signaling.

[5] = Pharmacokinetics; format: in vivo; settings: b.i.d. dosing
Source text: Pharmacokinetics. Compounds described herein are rapidly absorbed after oral administration. Compounds described herein cross the blood-brain-barrier and achieve therapeutically effective concentrations in the CNS. Compounds described herein may be dosed according to a wide variety of protocols, including but not limited to q.d., b.i.d., and the like.

[6] = tested on: human brain; test: fMRI BOLD imaging of test subjects given intranasal AVP (neurodegenerative disease model), emotional faces task; format: in vivo; settings: following IN-AVP, compared to placebo
Method: Neurodegenerative disease (ND) model. Test subjects are randomized to an ND model group (for example, n=15), and a baseline control group (for example, n=14). The ND model group is administered intranasal arginine vasopressin (IN-AVP), 40 IU Pitressin (JHP Pharmaceuticals) in a sterile aqueous solution. IN-AVP doses are administered in 3 mL intranasal atomizers (MAD300; Wolfe Tory Medical, Salt Lake City) 45 minutes prior to fMRI imaging. The baseline control group is administered intranasal vehicle only. All test subjects are evaluated by fMRI imaging.
fMRI imaging. Data are acquired with a Philips Achieva Quasar dual 16 Channel 3T MRI scanner at the University of Chicago Brain Research Imaging Center using a reverse spiral imaging sequence to minimize ventral brain signal dropout. […] Categories include: angry faces, neutral faces, happy faces, and a fixation point. Test subjects are given the “implicit” task of identifying the gender of each image by button press. Statistical parametric maps are generated based on pre-processed 3 mm^3 images that are spatially smoothed with an 8 mm kernel, bandpass filtered to remove drift, checked for excessive movement, and movement-corrected. Images from each individual are warped to an echoplanar image template in Montreal Neurological Institute space. Voxelwise whole brain analysis is conducted on data thresholded at >10 contiguous voxels, with small volume correction p<0.05, to examine effects of test compound versus placebo on BOLD activity in a priori regions of interest (ROI). ROIs of the identified clusters of BOLD differences are extracted as parameter estimates of average BOLD signal intensity in anatomically defined substructures and exported into SPSS (IBM; Armont, N.Y.) for ANCOVA, covarying for baseline parameter estimates in matching ROIs. Extracted parameter estimates of a priori ROIs are also examined with RM-ANOVA in SPSS with the within subjects factor and between subjects factors of all combinations of test compound versus placebo, and IN-AVP versus intranasal placebo. Comparisons are made between emotion conditions (angry faces) and various neutral conditions (neutral faces, happy faces, fixation points). Comparisons are also made between emotion conditions (neutral faces) and various neutral conditions (happy faces, fixation points).
Neuropsychiatric symptom treatment with vasopressin antagonists. A first group of test subjects in a baseline control group receiving intranasal placebo is randomized to test compound or placebo. A second group of test subjects in a ND model group receiving IN-AVP is randomized to test compound or placebo. Test compound, such as SRX228, SRX246, SRX251, SRX296, or SRX576, or placebo is administered in blinded form for 5-10 days (mean 7.3+/−1.3 days; minimum 5 days; […]) prior to fMRI. Alternatively, test compound, such as SRX228, SRX246, SRX251, SRX296, and SRX576, or placebo is administered in blinded form after IN-AVP or intranasal placebo administration, and prior to fMRI. […] For example, test compound is SRX246 (n=15; 80, 120, or 160 mg po bid) versus placebo (n=14) in oral capsules; or test compound is SRX251 (n=15; 80, 120, or 160 mg po bid) versus placebo (n=14) in oral capsules.

[7] = tested on: C57Bl/6J males; test: Social interaction test after chronic social subjugation; format: in vivo, mice
Source text: Anti-depressant Effect in the Social Interaction Test. […] A rapid subjugation paradigm in mice lead to diminished social interaction behavior, where the dependent measures are distance traveled and time in the Interaction Zone. A 28-day treatment regimen with chlordiazepoxide (CDP), a standard anxiolytic, had no effect on deficits produced by chronic subordination. Additional details are described in Berton et al. Essential role of BDNF in the mesolimbic dopamine pathway in social defeat stress. Science 311(5762):864-8 (Feb. 10, 2006).
Briefly, C57Bl/6J males are defeated daily for 10 days by resident, highly aggressive CF-1 males. After 5 minutes of direct exposure, a perforated plastic partition is inserted into the cage that allowed olfactory and visual contact without physical defeat for the remaining 23 hr 55 min each day. The C57 males are exposed to a different resident male in a different cage each day to increase the stress of the procedure (it is observed that all CF-1 males attacked the intruder each day). At the end of the 10 day defeat procedure, the C57 males are tested in an open field apparatus during the dark phase. A dominant male is caged in an area of the open field apparatus termed the “social interaction zone.” Time and distance traveled in the zone are recorded. The C57 males are then divided randomly among the following treatments: AVN246-HCl (2 mg/kg), saline vehicle (0.45%), or chlordiazepoxide (10 mg/kg). Treatments are given daily (i.p.) for 28 days and the animals are retested. Behavioral changes are determined by calculating difference scores (Post-Pretest) and these scores are analyzed.

[8] = difference score (Post-Pretest), daily i.p. for 28 days

T2 sequence (P37288 whole entry): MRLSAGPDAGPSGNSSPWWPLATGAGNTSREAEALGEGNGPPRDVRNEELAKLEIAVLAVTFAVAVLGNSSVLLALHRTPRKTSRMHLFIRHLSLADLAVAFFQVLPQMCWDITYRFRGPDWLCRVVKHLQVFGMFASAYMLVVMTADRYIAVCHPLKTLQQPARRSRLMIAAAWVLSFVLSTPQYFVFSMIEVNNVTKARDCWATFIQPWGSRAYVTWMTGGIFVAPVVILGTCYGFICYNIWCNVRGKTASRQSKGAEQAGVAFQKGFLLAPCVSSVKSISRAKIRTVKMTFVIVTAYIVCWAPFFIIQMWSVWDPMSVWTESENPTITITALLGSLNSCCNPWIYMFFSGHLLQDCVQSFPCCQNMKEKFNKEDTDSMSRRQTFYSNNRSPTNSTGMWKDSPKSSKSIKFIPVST
Chain of V2 (P30518 whole entry): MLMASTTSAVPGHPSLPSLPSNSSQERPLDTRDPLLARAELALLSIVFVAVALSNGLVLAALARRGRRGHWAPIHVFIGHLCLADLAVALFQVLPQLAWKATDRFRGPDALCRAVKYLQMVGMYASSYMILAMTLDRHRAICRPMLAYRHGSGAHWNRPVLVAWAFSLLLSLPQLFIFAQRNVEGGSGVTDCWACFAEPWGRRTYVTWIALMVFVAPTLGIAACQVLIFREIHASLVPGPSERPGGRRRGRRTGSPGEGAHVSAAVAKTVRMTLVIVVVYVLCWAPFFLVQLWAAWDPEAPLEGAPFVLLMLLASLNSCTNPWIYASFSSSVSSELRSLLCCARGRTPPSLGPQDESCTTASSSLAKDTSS

## C[C@@H](NC(=O)[C@@H](CC(=O)N1CCC(N2CCCCC2)CC1)N1C(=O)[C@@H](N2C(=O)OC[C@@H]2c2ccccc2)[C@H]1/C=C/c1cccc(I)c1)c1ccccc1 [Example 266]
[1]
  Ki: > 1000 nM
[2]
  Ki: > 100 nM
[3]; 3H-AVP competition, CHO cells expressing human V1a, read-out: V1a Binding Affinity IC50
  IC50: 1.8 nM
[3]; 3H-AVP competition, CHO cells expressing human V1a, read-out: V1a Ki
  Ki: 1.1 nM
[3]; receptor selectivity table, read-out: inhibition data Ki, V1a
  Ki: 1.1 nM

## C[C@@H](NC(=O)[C@@H](CC(=O)N1CCC(N2CCCCC2)CC1)N1C(=O)[C@@H](N2C(=O)OC[C@@H]2c2ccccc2)[C@H]1/C=C/c1ccccc1)c1ccccc1 [Example 224, 2(R)-[[4-(Piperidinyl)piperidinyl]carbonylmethyl]-2-[3(S)-(4(S)-phenyloxazolidin-2-on-3-yl)-4(R)-(2-styryl)azetidin-2-on-1-yl]acetic acid N—[(R)-α-methylbenzyl]amide]
[4]
  stress/arousal response in amygdala, cortex, hippocampus and thalamus: blocked the stress/arousal response
[5]
  T1/2: improved
  accumulation: 1.7 fold
[6]; posttreatment, angry faces versus happy faces
  BOLD activation signal in anterior cingulate cortex and medial prefrontal cortex: significantly decreases
[6]; posttreatment, angry faces versus happy faces, p<0.05
  BOLD activation signal in temporoparietal cortex (Brodmann Area 39) and amygdala: significantly decreases
[6]; pretreatment, angry faces versus fixation point, p<0.001
  BOLD activation signal in temporoparietal cortex (Brodmann Area 39) and amygdala: significantly decreases
[6]; pretreatment, angry faces versus fixation point, p<0.005
  BOLD activation signal in medial prefrontal cortex: significantly decreases
[6]; pretreatment
  cortical reactivity to angry faces in anterior cingulate cortex and medial superior prefrontal cortex: significantly attenuated

## CNC1=Nc2ccc(Cl)cc2C(c2ccccc2)=[N+]([O-])C1 [CDP, chlordiazepoxide]
[7]; 28-day treatment
  effect on social interaction deficits after chronic subordination: no effect
[7]; [8]
  Distance (traveled in the interaction zone): 1.0 ± 5
  Time (in the interaction zone): 0.0 ± 5

Source: patent US11319306B2, “Compositions and methods for treating neurodegenerative diseases” (Azevan Pharmaceuticals, Inc., priority 2014, dated 2022)
